This is an account of results in paper PMC5571211 (Scientific Reports, 2017).

Structures are written as SMILES.

The test has as its target T1, co-localization of 5-LOX with FLAP (Homo sapiens, UniProt P20292).
T1 construct: endogenous in cells; host or cells: freshly isolated human monocytes (immunofluorescence also in neutrophils)
T1 sequence (P20292 1-161): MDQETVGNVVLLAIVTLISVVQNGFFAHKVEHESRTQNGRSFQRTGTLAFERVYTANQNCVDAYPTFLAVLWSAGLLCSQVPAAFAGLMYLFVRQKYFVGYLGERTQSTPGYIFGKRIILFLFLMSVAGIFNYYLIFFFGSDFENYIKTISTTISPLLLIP
Briefly: Immunofluorescence microscopy of 5-LOX subcellular redistribution / co-localization with FLAP. It is filed as cell-based. The note with it: human neutrophils or monocytes; diflapolin 1 µM, MK886 0.3 µM, zileuton 3 µM. On the procedure: The incubations were stopped by paraformaldehyde fixation (4%, 20 min, RT) and cells were permeabilized using 100% ice-cold acetone (5 min, 4 °C). Blocking with non-immune goat serum (30 min, RT) was performed prior to overnight incubation (4 °C) with primary monoclonal-mouse-anti-5-LOX antibody (1:100 dilution, a generous gift from Dr. D. Steinhilber, Goethe University Frankfurt, Germany) and polyclonal-rabbit-anti-FLAP antibody (5 µg/mL, Abcam, Cambridge, UK). […] Cells were visualized by a Zeiss Axiovert 200 M microscope, and a Plan Neofluar × 100/1.30 Oil (DIC III) objective (Carl Zeiss, Jena, Germany) and image acquisition was performed using an AxioCam MR camera (Carl Zeiss).

Turning to `CC(C)c1ccc2c(c1)c(SC(C)(C)C)c(CC(C)(C)C(=O)O)n2Cc1ccc(Cl)cc1` [MK886, 3-[1-(4-chlorobenzyl)-3-t-butyl-thio-5-isopropylindol-2-yl]-2,2 - dimethylpropanoic acid], the “co-localization of 5-LOX with FLAP” value was “neither diflapolin nor the FLAP inhibitor MK886 or the 5-LOX inhibitor zileuton prevented co-localization”.
